The record followed here is EP2611847B1, “AMPHIPHILE FOR SOLUBILIZATION OF WATER-SOLUBLE ACTIVE INGREDIENTS” (BASF SE, priority 2010, dated 2012).

Values after ≈ are worked out from the molar mass of the structure shown. Read-outs that look alike come from different tables or passages of the source.

This series is described as follows: physchem. The conditions noted are these: for solubility thermodynamic at 24 h: thermodynamic from solid. Type of series: physicochemical. The procedure: In einem 50 mL Becherglas wurden 100 mg Polymer eingewogen und in 9,900 g dest. Wasser gelöst. Anschließend wurde dem Ansatz jeweils 100 mg Wirkstoff zugewogen, um eine übersättigte Lösung zu erhalten. Das Gemisch wurde nun 24 h bei Raumtemperatur mit Hilfe eines Magnetrührers gerührt. Nach einstündiger Ruhezeit wurde überschüssiger (d.h. nicht solubilisierter) Wirkstoff durch Zentrifugieren abgetrennt. Die so erhaltene, klare bzw. opake Lösung wurde anschließend auf ihren Wirkstoffgehalt mittels UV-Spektroskopie untersucht. Die Wellenlänge der UV-spektroskopischen Messung sind in Tabelle 1 zusammengestellt. Die Ergebnisse sind in Tabelle 2 zusammengestellt.

Setting [1] is: active alone in dist. water without polymer (not according to the invention), 24 h at room temperature.

In the case of `NC(=O)N1c2ccccc2C=Cc2ccccc21` [Carbamazepin], under setting [1], the “Löslichkeit Ohne Polymer” value was 140 mg/L.

As to `CN1C(C(=O)Nc2ccccn2)=C(O)c2ccccc2S1(=O)=O` [Piroxicam], under “water”, the solubility thermodynamic at 24 h is 0.021 mg/mL (≈ 63.4 µM).

Regarding `N#Cc1nn(-c2c(Cl)cc(C(F)(F)F)cc2Cl)c(N)c1[S+]([O-])C(F)(F)F` (stereo not shown) [Fipronil], for the setting “distilled water without polymer, active alone in dist. water without polymer (not according to the invention), 24 h at room temperature, read-out: Löslichkeit Ohne Polymer”, the solubility thermodynamic at 24 h turned out to be 0.003 mg/mL (≈ 6.86 µM).

In the case of `COC(=O)N(OC)c1ccccc1COc1ccn(-c2ccc(Cl)cc2)n1` [Pyraclostrobin], the “Löslichkeit Ohne Polymer” value under setting [1] is listed as 22,5 mg/l.
